In patent US20220008401A1, “COMPOSITIONS AND METHODS FOR TREATING PULMONARY DISEASE WITH MATRIX METALLOPROTEINASE INHIBITORS” (DARSHA LLC, priority 2019, published 2022):

Columns and labels:
[1] = Lung homogenate levels after nebulized Compound 1, Example 5 (mass spectroscopy); type: in vivo, C57/BL6 mice; details: for Compound 1 levels in the lung: nebulized, dose groups pooled, lung homogenate, n=6
Protocol: In this test, C57/BL6 mice were divided into three treatment groups, where they received nebulized Compound 1 at high dose (10 mg/kg), medium dose (5 mg/kg) and, low dose (2 mg/kg). Animals were sacrificed at 1, 3 and, 5 hours (n=3 mice per time point) followed by collection of lung homogenates. Homogenates were analyzed by mass spectroscopy to determine Compound 1 levels in the lung.

[2] = test system: caspase 3/7; test: Caspase 3/7 activity assay on lung homogenate of LPS-injured mice; type: in vivo; details: LPS-CGS group, four inhaled doses q6h starting 24 hours after LPS, n≥4 (LPS-PBS 0.81±1.15)
Protocol: (§1) It was also examined if Compound 1 would reduce the levels of apoptosis associated with injury by LPS. Because the time line of apoptosis takes hours, an additional set of mice were injured with LPS (1.5 mg/kg of 1 mg/ml solution in sterile PBS) followed by initiation of treatment with Compound 1 twenty four hours later. The mice received four doses of Compound 1 (one dose every six hours over a total duration of 24 hours in accordance with the treatment schedule described below with reference to FIG. 8B). The mice were sacrificed and their lungs were harvested and assessed for caspase 3 activity by western blot for cleaved caspase 3 and a caspase 3/7 activity assay obtained from ThermoFisher.
FIG. 5B is the relative densitometric quantification of western blots for cleaved caspase 3: whole caspase ratio. […] FIG. 5C depicts the results of the caspase 3/7 activity assay performed on mouse lung homogenate. […] The increase in caspase 3/7 activity was attenuated by inhaled treatment with Compound 1. FIG. 5D depicts 20× images (570A, 570B, and 570C) of representative sections of lung tissue fluorescently stained for cleaved caspase-3 (red) and cell nuclei (blue) in a control lung tissue (570A), a lung tissue of a mouse treated with LPS only (570B), and lung tissue of a mouse treated with LPS and Compound 1 (570C) (n=3).

[3] = target: MMP 9 (Mus musculus, UniProt P41245); test: MMP 9 Quantikine assay on BALF of LPS-injured mice, single inhaled dose; type: in vivo, C57BL/6J mice; set-up: assessed for MMP activity in both the bronchoalveolar lavage fluid (BALF) and lung tissue homogenate obtained from treated mice; from tissue; host or cells: bronchoalveolar lavage fluid (BALF) of LPS-injured C57BL/6J mice; details: LPS 1.5 mg/kg intranasal; 24 hours later single aerosolized dose 35 mg/kg; sacrifice one hour after nebulization
MMP 9, sequence (P41245 108-730): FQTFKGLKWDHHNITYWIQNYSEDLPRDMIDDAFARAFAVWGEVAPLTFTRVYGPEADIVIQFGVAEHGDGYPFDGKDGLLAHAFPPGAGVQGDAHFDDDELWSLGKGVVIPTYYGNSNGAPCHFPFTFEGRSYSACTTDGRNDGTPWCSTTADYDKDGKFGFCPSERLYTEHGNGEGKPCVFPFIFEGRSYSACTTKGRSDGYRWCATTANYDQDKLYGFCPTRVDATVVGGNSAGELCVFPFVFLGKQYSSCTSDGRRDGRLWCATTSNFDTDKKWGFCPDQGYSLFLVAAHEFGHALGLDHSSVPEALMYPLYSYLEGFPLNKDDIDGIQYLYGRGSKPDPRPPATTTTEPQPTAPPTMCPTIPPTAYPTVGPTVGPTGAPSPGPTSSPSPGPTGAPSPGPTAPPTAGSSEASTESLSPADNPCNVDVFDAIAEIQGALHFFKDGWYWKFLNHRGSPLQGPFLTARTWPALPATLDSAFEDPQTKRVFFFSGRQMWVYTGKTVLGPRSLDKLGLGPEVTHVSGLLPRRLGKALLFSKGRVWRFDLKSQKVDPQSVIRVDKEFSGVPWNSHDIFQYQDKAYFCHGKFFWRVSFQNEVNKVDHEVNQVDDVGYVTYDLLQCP
Protocol: MMP 9 was selected as a target as it is a well-established mediator of inflammation in lung injury. 12-week-old male C57BL/6J mice were intranasally instilled with LPS (1.5 mg/kg of 1 mg/ml solution in sterile PBS). 24 hours later, these mice received a single dose of aerosolized MMP inhibitor (Compound 1, dissolved in PBS, 35 mg/kg) or PBS alone. One hour following nebulization, the mice were sacrificed and assessed for MMP activity in both the bronchoalveolar lavage fluid (BALF) and lung tissue homogenate obtained from treated mice. One hour following nebulization of Compound 1, the presence of the aerosolized Compound 1 in the lung was confirmed at concentrations >100 ng/g of tissue. MMP activity in BALF was determined using a commercially available MMP 9 Quantikine assay from R&D systems.

[4] = test system: LPS injured mice; test: FITC-albumin BALF:serum ratio (vascular permeability/edema), LPS-injured mice, single inhaled dose; type: in vivo, C57BL/6J mice; details: LPS 1.5 mg/kg; 24 hours later single aerosolized dose 35 mg/kg; sacrifice one hour after; n=6/group (control 0.44, LPS 1.1)
Protocol: We next determined if inhaled Compound 1 attenuated specific features of acute inflammatory lung injury that were also observed in response to LPS. Again, 12-week-old male C57BL/6J mice were intranasally instilled with LPS (1.5 mg/kg of 1 mg/ml solution in sterile PBS). 24 hours later, these mice received a single dose of aerosolized MMP inhibitor (Compound 1, dissolved in PBS, 35 mg/kg) or PBS alone and a tail vein injection of FITC labeled albumin (FITC-albumin). One hour following nebulization, the mice were sacrificed. The left lung was fixed in formalin from each animal, paraffin embedded, sectioned and stained with H&E to examine histological features indicative of lung injury. These were achieved by visually scoring each slide based on a lung injury scoring system developed by the American Thoracic Society for animal models of inflammatory lung injury.
Tissue edema was assessed using two methods. First, serum and BALF fluid were collected from mice and FITC-albumin levels were measured in each using a fluorescent microplate reader. Fluid leakage into injured lungs is indicative of increased vascular permeability and could be indicative of edema. A greater fluid leakage would also be characterized by increased levels of FITC-albumin in the BALF. To determine the level of vascular permeability and edema, the ratio of BALF FITC-albumin to serum FITC-albumin was calculated. […]

[5] = test system: caspase 3; test: Western blot for cleaved caspase 3 in lung homogenates of LPS-injured mice; type: in vivo
Protocol: as §1
FIG. 5A is a representative western blot of lung homogenates that were equalized for protein content (i.e., normalized to actin) and probed for whole and cleaved caspase 3. Each lane represents a lung homogenate sample (40 μg) from an individual mouse. Lane 510 depicts a lung homogenate sample from a control mouse that was not administered LPS or Compound 1. Lanes 520 and 530 depict lung homogenate samples from two mice that were administered LPS but were not treated with Compound 1. […]
FIG. 5B is the relative densitometric quantification of western blots for cleaved caspase 3: whole caspase ratio. […]

[6] = test system: neutrophils (PMN); test: Myeloperoxidase staining of lung sections, LPS-injured mice, single inhaled dose; type: in vivo; details: LPS treated mice
Protocol: Since substantial literature indicates neutrophils (PMN) are critical mediators of inflammatory damage in injured lung, we next assessed if inhaled Compound 1 attenuated PMN infiltration of LPS injured lungs. To achieve this, mice were injured with LPS and 24 h later received a single inhaled dose of Compound 1 and were sacrificed 1 hour after dosing. PMN infiltration was assessed by examining lung sections (qualitatively) and BALF (quantitatively) from Compound 1 treated and untreated mice. To assess the effects of Compound 1 on PMN in situ, paraffin embedded lung sections (prepared as described previously) were stained for myeloperoxidase, a PMN marker.

[7] = test system: neutrophils; test: Neutrophil influx: myeloperoxidase staining and BALF differential cell counts, LPS-injured mice, q6h x 4 doses; type: in vivo
Protocol: Mice were nasally instilled with LPS followed by treatment with CGS every 6 hours for 4 doses. Mice were sacrificed 6 hours after the 4th dose of Compound 1 and lungs and BALF were collected for analysis. Paraffin embedded lung sections ([…]) were stained for myeloperoxidase, a neutrophil marker, followed by detection using DAB, to assess parenchymal neutrophil infiltration.
Differential cell counts were taken from each animal's cytospin with at least 3 separate images counted.

## butanamide, N-hydroxy-2-[[(4-hydroxyphenyl)sulfonyl](3-pyridinylmethyl)amino]-3-methyl, hydrochloride, (2R) [Compound 1]
[1]; 1 h post-inhalation
  Compound 1 levels in the lung: 310.7 ± 85.38 ng/g
[1]; 3 h post-inhalation
  Compound 1 levels in the lung: 49.03 ± 15.54 ng/g
[1]; 5 h post-inhalation
  Compound 1 levels in the lung: 24.48 ± 9.96 ng/g
[1]; high (10 mg/kg), medium (5 mg/kg), low (2 mg/kg) nebulized dose, 1, 3, 5 hours
  effect of dose size on Compound 1 concentration in lung: no significant effect
[2]
  caspase 3/7 activity: 0.05 ± 0.16 µM
[3]
  MMP 9 activity in BALF: inhibits MMP 9 activity in the BALF
[4]
  ratio of BALF FITC-albumin to serum FITC-albumin: 0.49
[5]; LPS 1.5 mg/kg, four inhaled doses, one every six hours, starting 24 hours after LPS, lung homogenate
  caspase 3 activation (cleaved caspase-3, western blot): absent or reduced
[5]; LPS-CGS group, four inhaled doses q6h starting 24 hours after LPS, n≥5 (LPS-PBS 2.57±1.15, PBS-PBS 0.25±0.15)
  cleaved:whole caspase 3 ratio (densitometry): 0.59±0.18 AU
[6]
  PMN infiltration into the lung parenchyma (myeloperoxidase staining): attenuates PMN infiltration into the lung parenchyma
[7]; LPS then every 6 hours for 4 doses, n≥4 (LPS only 8.0e6±5.7e6)
  overall inflammatory cell count in BALF: 8.6e5±3.7e5 cells/mL
[7]; LPS then every 6 hours for 4 doses, sacrifice 6 hours after 4th dose
  parenchymal neutrophil infiltration (myeloperoxidase staining): qualitatively reduced parenchymal neutrophil infiltration
[7]; LPS-CGS group, every 6 hours for 4 doses, n≥5 (LPS-PBS 8.0e6±5.7e6)
  neutrophil count within the BALF: 2.4e6±1.2e6 cells/ml
